{"source": "patent US4118561A", "about": "“7-(Substituted)-7H-pyrrolo[3,2-f]quinazoline-1,3-diamines” (priority 1977, dated 1978)", "key": {"S. paratyphi 11737": {"tested_on": "S. paratyphi 11737", "experiment": "In vitro antibacterial activity (MIC), S. paratyphi 11737", "format": "cell-based", "conditions": "Salmonella enterica, 18 h"}, "bacterial infections": {"tested_on": "bacterial infections", "experiment": "Synergism with sulfamethoxazole against bacterial infections in mice, oral", "format": "in vivo", "description": "The invention also provides compounds which will potentiate the antibacterial effects of sulfa drugs.\n(§1) The test agents are weighed, suspended in 0.5% aqueous carboxymethyl cellulose, homogenized (glass tissue grinder) and diluted according to the design of the experiment. Mice (male, 18±1 g., CD-1 strain) are pre-weighed, pooled, infected at random intraperitoneally with a 0.5 ml. standardized suspension (LD95 ±5%) of the bacterial organism in 5% gastric mucin and treated at random with single doses of the test agents either at the time of infection or six hours after infecting. The treated groups consist of ten mice per dosage level. Deaths are recorded daily for 14 days and the PD50 (mice are treated at time of infection) and CD50 (mice are treated six hours after infecting) values are calculated by the method of Reed and Muench [Amer. J. Hyg., 27, 493 (1938)]."}, "Proteus mirabilis 190": {"tested_on": "Proteus mirabilis 190", "experiment": "In vivo antibacterial synergism (mouse), Proteus mirabilis 190", "parameters": "species or system Proteus mirabilis (infected mice, CD-1)", "conditions": "mice, p.o.; for ED50: Proteus mirabilis, 190, po, 336 h; for PD50 SM/Cpd. (compound part): 0 hours; for PD50 SM/Cpd. (compound part) / CD50 SM/Cpd. (compound part): 20160 min; for CD50 SM/Cpd. (compound part): 6 hours", "description": "as §1"}, "Proteus vulgaris 347": {"tested_on": "Proteus vulgaris 347", "experiment": "In vivo antibacterial synergism (mouse), Proteus vulgaris 347", "parameters": "species or system Proteus vulgaris (infected mice, CD-1)", "conditions": "mice, p.o.; for ED50: Proteus vulgaris, 347, po, 336 h; for PD50 SM/Cpd. (compound part): 0 hours; for PD50 SM/Cpd. (compound part) / CD50 SM/Cpd. (compound part): 20160 min; for CD50 SM/Cpd. (compound part): 6 hours", "description": "as §1"}, "Escherichia coli W-102": {"tested_on": "Escherichia coli W-102", "experiment": "In vivo antibacterial synergism (mouse), Escherichia coli W-102", "parameters": "species or system Escherichia coli (infected mice, CD-1)", "conditions": "mice, p.o.; for PD50 SM/Cpd. (compound part): 0 hours; for PD50 SM/Cpd. (compound part) / CD50 SM/Cpd. (compound part): 20160 min; for CD50 SM/Cpd. (compound part): 6 hours", "description": "as §1"}, "[1]": {"tested_on": "Plasmodium berghei KBG 173", "experiment": "Antimalarial blood schizonticidal test in mice", "format": "in vivo, Plasmodium berghei (infected ICR/HA Swiss mice)", "parameters": "ΔMST (increase in mean survival time): unit: days", "conditions": "s.c.", "method_in_brief": "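Single s.c. doses (peanut oil vehicle, graded levels) given 72 h after i.p. inoculation of young Swiss mice with P. berghei KBG 173 blood (4 × 10^7 parasitized cells). Activity judged by cures (alive at 60 days) or significant mean survival gain over untreated controls, without drug-related deaths.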"}, "[2]": {"tested_on": "lymphocytic leukemia P-388", "experiment": "Activity in mice against lymphocytic leukemia P-388", "format": "in vivo", "conditions": "Mus musculus, P388, ip; mice, I.P., 20 mg/kg; read-out: T/C"}, "E. coli 9637": {"tested_on": "E. coli 9637", "experiment": "In vitro antibacterial activity (MIC), E. coli 9637", "conditions": "Escherichia coli, 9637, 18 h"}, "S. aureus Smith": {"tested_on": "S. aureus Smith", "experiment": "In vitro antibacterial activity (MIC), S. aureus Smith", "conditions": "Staphylococcus aureus, 18 h"}, "S. aureus 53-180": {"tested_on": "S. aureus 53-180", "experiment": "In vitro antibacterial activity (MIC), S. aureus 53-180", "conditions": "Staphylococcus aureus, 53180, 18 h"}, "P. vulgaris 6896": {"tested_on": "P. vulgaris 6896", "experiment": "In vitro antibacterial activity (MIC), P. vulgaris 6896", "conditions": "Proteus vulgaris, 6896, 18 h"}, "N. catarrhalis 8193": {"tested_on": "N. catarrhalis 8193", "experiment": "In vitro antibacterial activity (MIC), N. catarrhalis 8193", "conditions": "18 h"}, "K. pneumoniae 10031": {"tested_on": "K. pneumoniae 10031", "experiment": "In vitro antibacterial activity (MIC), K. pneumoniae 10031", "conditions": "Klebsiella pneumoniae, 10031, 18 h"}, "[3]": {"conditions": "treated 0 hours after infecting, read-out: PD50 (agent alone)"}, "[4]": {"conditions": "treated 6 hours after infecting, read-out: CD50 (agent alone)"}}, "note": "Where two headings read alike, the source gives them in different places."}
{"smiles": "N#Cc1ccc(Cn2ccc3c4c(N)nc(N)nc4ccc32)cc1", "note": "[Example 16, 7-[(4-cyanophenyl)methyl]-7H-pyrrolo[3,2-f]-quinazoline-1,3-diamine]", "values": [{"measurement": "MIC", "setting": "S. paratyphi 11737", "result": 0.488, "unit": "µg/mL"}, {"measurement": "synergistic effect with sulfamethoxazole", "setting": "bacterial infections", "result": "synergistic effect"}, {"measurement": "ED50", "setting": "Proteus mirabilis 190; [3]", "result": 18.6, "unit": "mg/kg"}, {"measurement": "ED50", "setting": "Proteus mirabilis 190; [4]", "result": 159, "unit": "mg/kg"}, {"measurement": "PD50 SM/Cpd. (compound part)", "setting": "Proteus mirabilis 190; with SM 0.39 mg. per kg.", "result": "> 12.50", "unit": "mg. per kg."}, {"measurement": "PD50 SM/Cpd. (compound part)", "setting": "Proteus mirabilis 190; with SM 0.78 mg. per kg.", "result": 8.78, "unit": "mg. per kg."}, {"measurement": "PD50 SM/Cpd. (compound part)", "setting": "Proteus mirabilis 190; with SM 1.56 mg. per kg.", "result": 3.39, "unit": "mg. per kg."}, {"measurement": "PD50 SM/Cpd. (compound part)", "setting": "Proteus mirabilis 190; with SM 3.11 mg. per kg.", "result": 2.44, "unit": "mg. per kg."}, {"measurement": "CD50 SM/Cpd. (compound part)", "setting": "Proteus mirabilis 190; with SM 0.39 mg. per kg.", "result": "> 6.25", "unit": "mg. per kg."}, {"measurement": "CD50 SM/Cpd. (compound part)", "setting": "Proteus mirabilis 190; with SM 0.78 mg. per kg.", "result": "> 6.25", "unit": "mg. per kg."}, {"measurement": "CD50 SM/Cpd. (compound part)", "setting": "Proteus mirabilis 190; with SM 1.56 mg. per kg.", "result": 4.0, "unit": "mg. per kg."}, {"measurement": "CD50 SM/Cpd. (compound part)", "setting": "Proteus mirabilis 190; with SM 3.11 mg. per kg.", "result": 2.33, "unit": "mg. per kg."}, {"measurement": "ED50", "setting": "Proteus vulgaris 347; [3]", "result": "> 200", "unit": "mg/kg"}, {"measurement": "ED50", "setting": "Proteus vulgaris 347; [4]", "result": "> 400", "unit": "mg/kg"}, {"measurement": "PD50 SM/Cpd. (compound part)", "setting": "Proteus vulgaris 347; with SM 0.78 mg. per kg.", "result": "> 12.5", "unit": "mg. per kg."}, {"measurement": "PD50 SM/Cpd. (compound part)", "setting": "Proteus vulgaris 347; with SM 1.56 mg. per kg.", "result": "> 12.5", "unit": "mg. per kg."}, {"measurement": "PD50 SM/Cpd. (compound part)", "setting": "Proteus vulgaris 347; with SM 3.13 mg. per kg.", "result": 9.67, "unit": "mg. per kg."}, {"measurement": "PD50 SM/Cpd. (compound part)", "setting": "Proteus vulgaris 347; with SM 6.25 mg. per kg.", "result": 6.25, "unit": "mg. per kg."}, {"measurement": "CD50 SM/Cpd. (compound part)", "setting": "Proteus vulgaris 347; with SM 3.11 mg. per kg.", "result": 7.28, "unit": "mg. per kg."}, {"measurement": "CD50 SM/Cpd. (compound part)", "setting": "Proteus vulgaris 347; with SM 6.25 mg. per kg.", "result": 8.83, "unit": "mg. per kg."}, {"measurement": "CD50 SM/Cpd. (compound part)", "setting": "Proteus vulgaris 347; with SM 12.5 mg. per kg.", "result": 4.66, "unit": "mg. per kg."}, {"measurement": "CD50 SM/Cpd. (compound part)", "setting": "Proteus vulgaris 347; with SM 25 mg. per kg.", "result": 5.07, "unit": "mg. per kg."}, {"measurement": "ED50", "setting": "Escherichia coli W-102; Escherichia coli, W102, po, 336 h, treated 0 hours after infecting, read-out: PD50 (agent alone)", "result": "> 800", "unit": "mg/kg"}, {"measurement": "PD50 SM/Cpd. (compound part)", "setting": "Escherichia coli W-102; with SM 3.13 mg. per kg.", "result": 67.8, "unit": "mg. per kg."}, {"measurement": "PD50 SM/Cpd. (compound part)", "setting": "Escherichia coli W-102; with SM 6.25 mg. per kg.", "result": 53.1, "unit": "mg. per kg."}, {"measurement": "PD50 SM/Cpd. (compound part)", "setting": "Escherichia coli W-102; with SM 12.5 mg. per kg.", "result": 15.6, "unit": "mg. per kg."}, {"measurement": "PD50 SM/Cpd. (compound part)", "setting": "Escherichia coli W-102; with SM 25.0 mg. per kg.", "result": 15.9, "unit": "mg. per kg."}, {"measurement": "CD50 SM/Cpd. (compound part)", "setting": "Escherichia coli W-102; with SM 12.5 mg. per kg.", "result": 50, "unit": "mg. per kg."}, {"measurement": "CD50 SM/Cpd. (compound part)", "setting": "Escherichia coli W-102; with SM 25 mg. per kg.", "result": 89, "unit": "mg. per kg."}, {"measurement": "CD50 SM/Cpd. (compound part)", "setting": "Escherichia coli W-102; with SM 50 mg. per kg.", "result": 37, "unit": "mg. per kg."}, {"measurement": "minimal effective dose", "setting": "[1]; Plasmodium berghei, sc, 1440 h, single dose, 60-day survivors, read-out: Min. Curing Dose", "result": 5, "unit": "mg/kg"}, {"measurement": "Cure/Treat at Min. Curing Dose", "setting": "[1]; at the Min. Curing Dose, 60-day survivors", "result": "1/5"}, {"measurement": "ΔMST (increase in mean survival time)", "setting": "[1]; dose 10 mg. per kg.", "result": 8.4}, {"measurement": "response vs control in vivo at 20 mg/kg", "setting": "[2]", "result": 138, "unit": "%"}, {"measurement": "MIC", "setting": "E. coli 9637", "result": 0.244, "unit": "µg/mL"}, {"measurement": "MIC", "setting": "S. aureus Smith", "result": 0.244, "unit": "µg/mL"}, {"measurement": "MIC", "setting": "S. aureus 53-180", "result": 0.122, "unit": "µg/mL"}, {"measurement": "MIC", "setting": "P. vulgaris 6896", "result": 1.95, "unit": "µg/mL"}, {"measurement": "MIC", "setting": "N. catarrhalis 8193", "result": 0.0076, "unit": "µg/mL"}, {"measurement": "MIC", "setting": "K. pneumoniae 10031", "result": 0.061, "unit": "µg/mL"}]}
